Data as given in patent US9006241B2, “Pyrimidine derivatives” (Noviga Research AB, priority 2011, dated 2015).

What was measured:
Format in all cases: cell-based
[1] = tested on: CCRF-CEM cancer cells - leukemia; test: Fluorometric Microculture Cytotoxicity Assay (FMCA), CCRF-CEM; conditions: Homo sapiens, 72 h incubation
[2] = tested on: MDA-MB-231 (breast cancer); test: FMCA, MDA-MB-231; conditions: Homo sapiens, MDA-MB-231 breast cancer cells
Text: (§1) The Fluorometric Microculture Cytotoxicity Assay, FMCA (Larsson, R., et al.; Anticancer Res, 1989, 9, 1111-1119), is a three day non-clonogenic microplate-based cell viability assay used for measurement of the cytotoxic and/or cytostatic effect of compounds in vitro (Lindhagen, E. et al.; Nat. Protoc., 2008, 3, 1364-1369). FMCA represents a valuable method to measure cytotoxicity in a number of cell types, both cell lines and primary cells from patients (Larsson, R., et al.; Int. J. Cancer, 1992, 50, 177-185; Fridborg, H., et al.; Eur. J. Cancer, 1999. 35, 424-432; Dhar, S., et al.; Br. J. Cancer, 1996, 74, 888-896).
(§2) FMCA is based on the principle that fluorescein diacetate (FDA) is converted to the fluorescent probe fluorescein by esterases in the plasma membranes of living cells. For experiments, 96 or 384-well microplates are prepared with compounds and stored at −70° C. until use. Cells are then seeded into the drug-prepared plates and placed in an incubator for 72 h. On the last day of incubation, the plates are washed and a buffer containing FDA is added and incubated with the cells for 45 minutes. Finally the fluorescence per well is measured in a fluorometer and a Survival Index % (SI) for each compound-treated well is calculated with the equation: Compound-treated cells minus blank divided by control cells minus blank. A high SI-value indicates a large percentage of living cells and vice versa.
(§3) For dose-response experiments, 384-well plates were prepared as follows:
(§4) Compounds of the invention as well comparative kinase inhibitors sorafenib sunitinib, dasatinib, pazopanib and a reference compound disclosed in WO 2009/071535 (compound #107) were diluted with PBS to a concentration ten-times higher than the desired starting concentration. Then, a Biomek 2000 liquid handling system was employed to serially dilute the compounds in a deep-well 384-well plate. From this plate, assay plates containing 5 μl compound per well were prepared with the Biomek 2000. Certain compounds precipitated when diluted with PBS, and these compounds were therefore prepared in a 96-well plate manually as described above using culture medium RPMI 1640 instead of PBS.
(§5) The compounds were also tested at five concentrations, with five times serial dilution on the following cell types: CCRF-CEM, hTERT-RPE1 (normal retinal epithelial cells), hRPTEpiC (normal renal cells), and peripheral blood mononuclear cells (PBMC). Each experiment was performed three times, except for PBMC and hRPTEpiC, which were performed twice. SI-values were calculated, graphs were plotted using GraphPadPrism 5.0 (GraphPad Software Inc. La Jolla, Calif.) and IC50-values for each cell type and compound were determined from the curves.
(§6) The compounds of the invention were also tested on further cancer cell lines related to breast cancer (MDA-MB-231; see e.g. Cailleau, R., et al.; J. Natl. Cancer Inst., 1974, 53, 661-674), teniposide-resistant leukemia (CEM/VM1 see e.g. Danks, M., et al.; Cancer Res., 1987, 47, 1297-1301), leukemia (HL-60; see e.g. Collins, S., et al.; Nature, 1977, 270, 347-349), doxorubicin-resistant lung cancer (H69AR; see e.g. Mirski, S., et al.; Cancer Res., 1987, 47, 2594-2598), myeloma (RPMI 8226; see e.g. Matsuoka, Y., et al.; Proc. Soc. Exp. Biol. Med., 1967, 125, 1246-1250), doxorubicin-resistant myeloma (8226/Dox40; see e.g. Dalton, W., et al.; Blood, 1989, 15, 747-752), lymphoma (U-937, see e.g. Sundström, C., et al.; Int. […]

[3] = tested on: CEM/VM1 (teniposide-resistant leukemia); test: FMCA, CEM/VM1; conditions: Homo sapiens, CEM/VM1 teniposide-resistant leukemia cells
Text: as §1, §2, §3, §4, §5
as §6, with “Int. J. Cancer, 1976, 17, 565-577), vincristin-resistant lymphoma (U-937-vcr; see e.g. Botling, J., et al.; Int. J. Cancer, 1994, 58, 269-274), ovarian cancer (A2780; see e.g. Hamilton, T., et al.; Semin. Oncol., 1984, 11, 285-298), doxorubicin-resistant ovarian cancer (A2780/Adr), cisplatin-resistant ovarian cancer (A2780/Cis; see e.g. Behrens, B., et al. Cancer Res. 1987, 47, 414-418), pancreatic cancer (PANC-1, BxPC-3, and MIA PaCa-2; see e.g. Lieber, M., et al.; Int. J. Cancer, 1975, 15, 741-747; Loor, R., et al.; Clin. Lab.” for “Int.”

[4] = tested on: HL-60 (leukemia); test: FMCA, HL-60; conditions: Homo sapiens, HL-60 leukemia cells
Text: as §1, §2, §3, §4, §5, §6

[5] = tested on: H69AR (doxorubicin-resistant lung cancer); test: FMCA, H69AR; conditions: Homo sapiens, H69AR doxorubicin-resistant lung cancer cells
Text: as §1, §2, §3, §4, §5
as §6, with “Int. J. Cancer, 1976, 17, 565-577), vincristin-resistant lymphoma (U-937-vcr; see e.g. Botling, J., et al.; Int. J. Cancer, 1994, 58, 269-274), ovarian cancer (A2780; see e.g. Hamilton, T., et al.; Semin. Oncol., 1984, 11, 285-298), doxorubicin-resistant ovarian cancer (A2780/Adr), cisplatin-resistant ovarian cancer (A2780/Cis; see e.g. Behrens, B., et al. Cancer Res. 1987, 47, 414-418), pancreatic cancer (PANC-1, BxPC-3, and MIA PaCa-2; see e.g. Lieber, M., et al.; Int. J. Cancer, 1975, 15, 741-747; Loor, R., et al.; Clin. Lab.” for “Int.”

[6] = tested on: RPMI 8226 (myeloma); test: FMCA, RPMI 8226; conditions: Homo sapiens, RPMI 8226 myeloma cells
Text: as §1, §2, §3, §4, §5
as §6, with “Int. J. Cancer, 1976, 17, 565-577), vincristin-resistant lymphoma (U-937-vcr; see e.g. Botling, J., et al.; Int. J. Cancer, 1994, 58, 269-274), ovarian cancer (A2780; see e.g. Hamilton, T., et al.; Semin. Oncol., 1984, 11, 285-298), doxorubicin-resistant ovarian cancer (A2780/Adr), cisplatin-resistant ovarian cancer (A2780/Cis; see e.g. Behrens, B., et al. Cancer Res. 1987, 47, 414-418), pancreatic cancer (PANC-1, BxPC-3, and MIA PaCa-2; see e.g. Lieber, M., et al.; Int. J. Cancer, 1975, 15, 741-747; Loor, R., et al.; Clin. Lab.” for “Int.”

[7] = tested on: 8226/Dox40 (doxorubicin-resistant myeloma); test: FMCA, 8226/Dox40; conditions: 8226/Dox40 doxorubicin-resistant myeloma cells
Text: as §1, §2, §3, §4, §5
as §6, with “Int. J. Cancer, 1976, 17, 565-577), vincristin-resistant lymphoma (U-937-vcr; see e.g. Botling, J., et al.; Int. J. Cancer, 1994, 58, 269-274), ovarian cancer (A2780; see e.g. Hamilton, T., et al.; Semin. Oncol., 1984, 11, 285-298), doxorubicin-resistant ovarian cancer (A2780/Adr), cisplatin-resistant ovarian cancer (A2780/Cis; see e.g. Behrens, B., et al. Cancer Res. 1987, 47, 414-418), pancreatic cancer (PANC-1, BxPC-3, and MIA PaCa-2; see e.g. Lieber, M., et al.; Int. J. Cancer, 1975, 15, 741-747; Loor, R., et al.; Clin. Lab.” for “Int.”

[8] = tested on: U-937 (lymphoma); test: FMCA, U-937; conditions: Homo sapiens, U-937 lymphoma cells
Text: as §1, §2, §3, §4, §5
as §6, with “Int. J. Cancer, 1976, 17, 565-577), vincristin-resistant lymphoma (U-937-vcr; see e.g. Botling, J., et al.; Int. J. Cancer, 1994, 58, 269-274), ovarian cancer (A2780; see e.g. Hamilton, T., et al.; Semin. Oncol., 1984, 11, 285-298), doxorubicin-resistant ovarian cancer (A2780/Adr), cisplatin-resistant ovarian cancer (A2780/Cis; see e.g. Behrens, B., et al. Cancer Res. 1987, 47, 414-418), pancreatic cancer (PANC-1, BxPC-3, and MIA PaCa-2; see e.g. Lieber, M., et al.; Int. J. Cancer, 1975, 15, 741-747; Loor, R., et al.; Clin. Lab.” for “Int.”

[9] = tested on: U-937-vcr (vincristin-resistant lymphoma); test: FMCA, U-937-vcr; conditions: U-937-vcr vincristin-resistant lymphoma cells
Text: as §1, §2, §3, §4, §5
as §6, with “Int. J. Cancer, 1976, 17, 565-577), vincristin-resistant lymphoma (U-937-vcr; see e.g. Botling, J., et al.; Int. J. Cancer, 1994, 58, 269-274), ovarian cancer (A2780; see e.g. Hamilton, T., et al.; Semin. Oncol., 1984, 11, 285-298), doxorubicin-resistant ovarian cancer (A2780/Adr), cisplatin-resistant ovarian cancer (A2780/Cis; see e.g. Behrens, B., et al. Cancer Res. 1987, 47, 414-418), pancreatic cancer (PANC-1, BxPC-3, and MIA PaCa-2; see e.g. Lieber, M., et al.; Int. J. Cancer, 1975, 15, 741-747; Loor, R., et al.; Clin. Lab.” for “Int.”

[10] = tested on: A2780 (ovarian cancer); test: FMCA, A2780; conditions: Homo sapiens, A2780 ovarian cancer cells
Text: as §1, §2, §3, §4, §5
as §6, with “Int. J. Cancer, 1976, 17, 565-577), vincristin-resistant lymphoma (U-937-vcr; see e.g. Botling, J., et al.; Int. J. Cancer, 1994, 58, 269-274), ovarian cancer (A2780; see e.g. Hamilton, T., et al.; Semin. Oncol., 1984, 11, 285-298), doxorubicin-resistant ovarian cancer (A2780/Adr), cisplatin-resistant ovarian cancer (A2780/Cis; see e.g. Behrens, B., et al. Cancer Res. 1987, 47, 414-418), pancreatic cancer (PANC-1, BxPC-3, and MIA PaCa-2; see e.g. Lieber, M., et al.; Int. J. Cancer, 1975, 15, 741-747; Loor, R., et al.; Clin. Lab.” for “Int.”

[11] = tested on: A2780/Adr (doxorubicin-resistant ovarian cancer); test: FMCA, A2780/Adr; conditions: A2780/Adr doxorubicin-resistant ovarian cancer cells
Text: as §1, §2, §3, §4, §5
as §6, with “Int. J. Cancer, 1976, 17, 565-577), vincristin-resistant lymphoma (U-937-vcr; see e.g. Botling, J., et al.; Int. J. Cancer, 1994, 58, 269-274), ovarian cancer (A2780; see e.g. Hamilton, T., et al.; Semin. Oncol., 1984, 11, 285-298), doxorubicin-resistant ovarian cancer (A2780/Adr), cisplatin-resistant ovarian cancer (A2780/Cis; see e.g. Behrens, B., et al. Cancer Res. 1987, 47, 414-418), pancreatic cancer (PANC-1, BxPC-3, and MIA PaCa-2; see e.g. Lieber, M., et al.; Int. J. Cancer, 1975, 15, 741-747; Loor, R., et al.; Clin. Lab.” for “Int.”

[12] = tested on: A2780/Cis (cisplatin-resistant ovarian cancer); test: FMCA, A2780/Cis; conditions: A2780cis, A2780/Cis cisplatin-resistant ovarian cancer cells
Text: as §1, §2, §3, §4, §5
as §6, with “Int. J. Cancer, 1976, 17, 565-577), vincristin-resistant lymphoma (U-937-vcr; see e.g. Botling, J., et al.; Int. J. Cancer, 1994, 58, 269-274), ovarian cancer (A2780; see e.g. Hamilton, T., et al.; Semin. Oncol., 1984, 11, 285-298), doxorubicin-resistant ovarian cancer (A2780/Adr), cisplatin-resistant ovarian cancer (A2780/Cis; see e.g. Behrens, B., et al. Cancer Res. 1987, 47, 414-418), pancreatic cancer (PANC-1, BxPC-3, and MIA PaCa-2; see e.g. Lieber, M., et al.; Int. J. Cancer, 1975, 15, 741-747; Loor, R., et al.; Clin. Lab.” for “Int.”

[13] = tested on: BxPC-3 (pancreatic cancer); test: FMCA, BxPC-3; conditions: Homo sapiens, BxPC-3 pancreatic cancer cells
Text: as §1, §2, §3, §4, §5, §6

[14] = tested on: PANC-1 (pancreatic cancer); test: FMCA, PANC-1; conditions: Homo sapiens, PANC-1 pancreatic cancer cells
Text: as §1, §2, §3, §4, §5, §6

[15] = tested on: MIA PaCa-2 (pancreatic cancer); test: FMCA, MIA PaCa-2; conditions: Homo sapiens, MIA PaCa-2 pancreatic cancer cells
Text: as §1, §2, §3, §4, §5, §6

[16] = tested on: PC-3 (prostate cancer); test: FMCA, PC-3; conditions: PC-3 prostate cancer cells
Text: as §1, §2, §3, §4, §5, §6

EC50 [2]: 100 nM
EC50 [3]: 6.6 nM
EC50 [4]: 9.1 nM
EC50 [5]: 23 nM
EC50 [6]: 45 nM
EC50 [7]: 110 nM
EC50 [8]: 13 nM
EC50 [9]: 28 nM
EC50 [10]: 33 nM
EC50 [11]: 140 nM
EC50 [12]: 25 nM
EC50 [13]: 37 nM
EC50 [14]: 1600 nM
EC50 [15]: 14 nM
EC50 [16]: 240 nM
SMILES: COc1ccc2[nH]cc(CCNc3nccc(Nc4ccc5[nH]c(C)cc5c4)n3)c2c1 [Example 4, N^2-[2-(5-methoxy-1H-indol-3-yl)ethyl]-N^4-(2-methyl-1H-indol-5-yl)pyrimidine-2,4-diamine]
EC50 [1]: 28 nM
